Data reported in patent US12544392B2, “Treatment of adenovirus infection or disease associated with adenovirus infection” (SymBio Pharmaceuticals Limited, priority 2023, dated 2026).

Tests used:
[1] = tested on: adenovirus (AdV); assay: Human clinical study on treatment of AdV infectious disease: viral load of AdV in plasma by real-time qPCR; assay type: in vivo; conditions: for time for the levels of viral load to reach below the LOD: overall
Method: A human clinical study on the treatment of adenovirus (AdV) infectious disease was conducted according to the following procedure.
Patients aged 2 months or older who have asymptomatic AdV infection or AdV disease, have an underlying immunocompromised state, and have AdV viremia at a high level, including hematopoietic stem cell transplant recipients before the immune reconstitution by the graft cells is achieved, organ transplant recipients on medication with an immunosuppressant, and patients with immunodeficiency syndrome (patients with 10,000 or more copies/ml in a sample, or patients with 1,000 or more copies/ml in two samples while the second viral load is greater than the first viral load).
The brincidofovir (BCV) infusion is a sterile aqueous solution containing 10 mg/mL BCV.
• Product name: Brincidofovir (BCV) • Dosage form: Solution for infusion • Unit dose: 10 mg/mL (1 mL per vial) • Route of administration: Intravenous (IV) infusion • Physical description: Clear, colorless solution in a sterile glass vial • Storage: Refrigerated (2-8° C.) • Dosing: Continuous IV drip infusion administered over a period of 2 hours twice weekly (on Days 1 and 4) 1.1.3 Dose • Cohort 1:0.2 mg/kg (if body weight≥50 kg, 10 mg/dose), twice weekly • Cohort 2:0.3 mg/kg (if body weight≥50 kg, 15 mg/dose), twice weekly • Cohort 3:0.4 mg/kg (if body weight≥50 kg, 20 mg/dose), twice weekly 1.1.4 Drug Administration
The dose of BCV 10 mg/mL solution for infusion is prepared based on the patient's body weight.
Preparation: Using a sterile syringe and needle, transfer 1 mL of IV BCV solution from one vial into a 100-mL glucose 5% IV bag to make a diluted dosing solution. For more than 10 mg/dose, prepare one additional diluted dosing solution in the same procedure mentioned above. Gently invert the bag at least 5 times to mix. Note: No vigorous shaking of the solution in a vial or the diluted dosing solution in a bag.
Administer the appropriate volume of diluted dosing solution based on the patient's body weight. Each dose is administered intravenously at a constant rate over 2 hours. Upon completion of the administration, the IV line is flushed with glucose 5% or dextrose 5% to ensure the IV line has been cleared of all active drug. If required per institutional practice, the flush of glucose 5% or dextrose 5% may be followed by a flush with normal saline. Diluted dosing solution should be prepared at the time of use in principle and should not be prepared the day before.
Subjects 101-12 of cohort 2, and 101-15, 101-18 and 110-06 of cohort 3 took cyclosporine, an immunosuppressive drug, during the treatment period (duration of treatment) of intravenous BCV. Prior PK studies in healthy subjects have shown a significant increase in plasma BCV exposure with concomitant intravenous infusion of BCV and cyclosporine. […] In view of the above, for the above patients taking cyclosporine, any of the doses indicated in 1.1.3 (cohorts 1-3) above is reduced to 60% for administration. Note that when cyclosporine is administered as BID (twice daily) oral or injectable form, the administration is conducted with an interval of 2 hours after the completion of intravenous BCV. In the case of continuous infusion of cyclosporine for 24 hours, no interval is needed.
The study duration is at least 9 weeks, based on a screening period of 1 week, a treatment period of at least 4 weeks, and post-treatment follow-up period of 30 days. In the screening, after informed consent has been obtained from the patients, a screening evaluation is conducted to determine eligibility for the study. On the first day of the first week of the treatment period, patients are assigned a dose based on the applicable cohort (see the section 1.1.3 Cohorts 1-3 above). The duration of treatment is a minimum of 4 weeks and a maximum of 14 weeks, and termination is based on the treatment stopping criteria as described below. […]

[2] = tested on: adenovirus (AdV); assay: Analysis of AdV content in stool of patients by quantitative PCR; assay type: in vivo, human; conditions: for patients in whom AdV content in stool was reduced to ND during the study period: ND = not detected
Source text: In the clinical study of Example 1, the AdV contents in the stools of patients were examined. […] In the figure, D means detected, ND means not detected, and NP means not performed. A quantitative PCR method was used to analyze AdV contents.

[3] = cohort 1: 0.2 mg/kg IV twice weekly
[4] = cohort 2: 0.3 mg/kg IV twice weekly
[5] = cohort 3: 0.4 mg/kg IV twice weekly
[6] = cohort 3: 0.4 mg/kg IV twice weekly, of 10 cases

CCCCCCCCCCCCCCCCOCCCOP(=O)(O)CO[C@H](CO)Cn1ccc(N)nc1=O [BCV, [(2S)-1-(4-amino-2-oxopyrimidin-1-yl)-3-hydroxypropan-2-yl]oxymethyl-(3-hexadecoxypropoxy)phosphinic acid]
patients in whom the levels of viral load of AdV reached below the LOD ([1]; cohort 1: 0.2 mg/kg (10 mg/dose if body weight ≥50 kg) IV twice weekly, plasma, LOD 25 copies/ml): two
cases with relapse among those that reached below the LOD [1, 3]: One
patients who died [1, 3]: one
patients in whom the levels of viral load of AdV reached below the LOD ([1]; cohort 2: 0.3 mg/kg (15 mg/dose if body weight ≥50 kg) IV twice weekly, plasma, LOD 25 copies/ml): 5 patients
patients who died [1, 4]: one
time for the levels of viral load to reach below the LOD ([1]; cohort 2: 0.3 mg/kg IV twice weekly, the 5 cases): longer time
cases in which the levels of viral load of AdV reached below the LOD ([1]; cohort 3: 0.4 mg/kg (20 mg/dose if body weight ≥50 kg) IV twice weekly, plasma, LOD 25 copies/ml, all cases): 10 cases
relapse or death [1, 5]: No patient relapsed or died
patients whose levels of viral load reached below the LOD within 4 weeks [1, 6]: 8 patients
remaining patients whose levels of viral load reached below the LOD at Week 5 and 6 [1, 6]: 2 patients
time for the levels of viral load to reach below the LOD ([1]; cohort 3: 0.4 mg/kg IV twice weekly, the 10 cases): shorter time
time at which the viral load of AdV was reduced to a level below the LOD ([1]; patient 110-05 in cohort 3 (0.4 mg/kg IV twice weekly)): 3 Week
patients in whom AdV content in stool was reduced to ND during the study period [2, 4]: 2 of 9
cases reduced to ND in which AdV was detected in stool in the following week ([2]; cohort 2: 0.3 mg/kg IV twice weekly, of the two cases): one
patients in whom AdV content in stool was reduced to ND during the study period [2, 5]: 5 of 8
